Several values for one entry are separate records, joined by “and”; a condition that tells them apart may be missing. Equal entries are not always repeated. Where a SMILES comes first, the peptide text is derived from it. [ ]: non-standard residue; d: D form. The star is where a group is joined. αMeW = C[C@](N)(Cc1c[nH]c2ccccc12)C(=O)O; Acetyl(2-thienyl) = O=C(Cc1cccs1)*
Legend:
NMU2 A302H = molecular target: T1, NMU2 A302H (Homo sapiens, UniProt Q9GZQ4, A302H); experiment: TRUPATH assay, NMU2 mutant A302H; type: cell-based; settings: Log [CPN 267] M -13
T1 construct: HA signal peptide (N); expressed in transfected cells; host or cells: HEK 293F
T1 sequence (Q9GZQ4 whole entry A302H): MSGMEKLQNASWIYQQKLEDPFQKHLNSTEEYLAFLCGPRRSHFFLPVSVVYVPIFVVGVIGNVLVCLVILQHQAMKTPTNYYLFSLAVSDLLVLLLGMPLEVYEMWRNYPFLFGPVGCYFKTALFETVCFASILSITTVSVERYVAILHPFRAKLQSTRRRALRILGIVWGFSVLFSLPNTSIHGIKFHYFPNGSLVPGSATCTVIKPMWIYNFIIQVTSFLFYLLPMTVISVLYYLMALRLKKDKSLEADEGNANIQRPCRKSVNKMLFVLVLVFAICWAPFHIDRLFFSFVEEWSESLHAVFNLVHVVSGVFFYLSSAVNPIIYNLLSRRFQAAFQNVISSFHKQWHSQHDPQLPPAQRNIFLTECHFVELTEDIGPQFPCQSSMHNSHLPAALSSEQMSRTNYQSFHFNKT
Description: (§1) The plasmids of Gαi1, Gβ3, and Gγ9 used for the TRUPATH assay were purchased from Addgene (TRUPATH Kit, #1000000163). NMU2 constructs of WT and mutants were constructed into a PTT5 vector (Invitrogen) with an N-terminal HA signal peptide followed by a Flag tag. HEK 293F cells were transiently transfected with WT or mutants of NMU2, Gαi1, Gβ3, and Gγ9 at an […] ratio of 4:1:1:1 with a total of 3500 ng plasmid DNA using a transfection reagent (PEI MAX 2000, Polysciences) and cultivated at 37 °C with 5 % CO2. Cells were collected after 48-h transfection. The expression level of the receptor was measured by incubating 10 μl cells with 15 μl TBS buffer supplemented with 4% bovine serum albumin, 20% (v/v) viability staining solution7-AAD (Invitrogen, Cat#00-6993-50), and ANTI-FLAG M2-FITC antibody (Sigma, F4049; 1:100 diluted by TBS) at 4 °C for 20 min. After incubation, 175 μl TBS buffer was added, and the fluorescence signal on the cell surface was detected by an FCM (flow cytometry) reader (Millipore). The cells were diluted with 1× HBSS (Hank’s balanced salt solution) balanced buffer supplemented with 25 mM HEPES, pH 7.4, and seeded onto the 96-well opaque cell culture plates (Beyotime) at a density of 18,000 cells per well by 60 μl. Freshly prepared 50 μM coelenterazine 400a (Nanolight Technologies) was added into the well by 10 μl. After a 5 min equilibration time in the darkness, plates were then read in a Synerg^TM H1 microplate reader (BioTek) with excitation at 395 nm and emission at 410 and 515 nm by serially three times. Then, 30 μl of 3.3× agonists were added into the wells with a gradient final concentration from 10^−4–10^−13 M. Plates were read immediately again by serially five times. Data were processed and analyzed following the method in the literature by using GraphPad Prism 8.0.

NMU2 N306Q = molecular target: T2, NMU2 N306Q (Homo sapiens, UniProt Q9GZQ4, N306Q); experiment: TRUPATH assay, NMU2 mutant N306Q; type: cell-based
T2 construct: HA signal peptide (N); expressed in transfected cells; host or cells: HEK 293F
T2 sequence (Q9GZQ4 whole entry N306Q): as the sequence (Q9GZQ4 whole entry A302H) above, with H302A, N306Q counted along it
Description: as §1

NMU2 = molecular target: T3, NMU2 (Homo sapiens, UniProt Q9GZQ4); experiment: TRUPATH Gαi1βγ biosensor assay, WT NMU2; type: cell-based; settings: WT; for CPN 267–induced G protein activation of NMU2: single replicates
T3 construct: HA signal peptide (N); expressed in transfected cells; host or cells: HEK 293F
T3 sequence (Q9GZQ4 whole entry): as the sequence (Q9GZQ4 whole entry A302H) above, with H302A counted along it
Description: as §1

NMU1 = tested on: NMU1; parameters: method as in PMID 24999562, PMID 25815150, PMID 28548497; settings: cited from earlier work
NMU2 H43E = molecular target: T4, NMU2 H43E (Homo sapiens, UniProt Q9GZQ4, H43E); experiment: TRUPATH assay, NMU2 mutant H43E; type: cell-based; settings: for increase of Emax: H43E vs WT, TRUPATH; for CPN 267–induced G protein activation of NMU2: single replicates
T4 construct: HA signal peptide (N); expressed in transfected cells; host or cells: HEK 293F
T4 sequence (Q9GZQ4 whole entry H43E): as the sequence (Q9GZQ4 whole entry A302H) above, with H43E, H302A counted along it
Description: as §1

SMILES: C[C@@](Cc1c[nH]c2ccccc12)(NC(=O)[C@H](Cc1c[nH]c2ccccc12)NC(=O)Cc1cccs1)C(=O)N[C@@H](CCCNC(=N)N)C(=O)N1CCC[C@H]1C(=O)N[C@@H](CCCNC(=N)N)C(=O)N[C@@H](CC(N)=O)C(N)=O [CPN 267] ({Acetyl(2-thienyl)}-W[αMeW]RPRN-NH2; N-terminus assumed)
- CPN 267 dose-response point on NMU2 (TRUPATH, raw signal) (NMU2 A302H): 0
- EC50 ratio EC50(mutant)/EC50(WT) (NMU2 N306Q): 0.12
- CPN 267–induced G protein activation of NMU2 (NMU2 N306Q; Log [CPN 267] M -4, single replicates): -0.07238 and -0.04006 and -0.03184
- CPN 267–induced G protein activation of NMU2 (NMU2 N306Q; Log [CPN 267] M -5, single replicates): -0.01962 and -0.06076 and -0.0468 and -0.06887
- CPN 267–induced G protein activation of NMU2 (NMU2 N306Q; Log [CPN 267] M -6, single replicates): -0.04834 and -0.04745
- CPN 267 dose-response point on NMU2 (TRUPATH, raw signal) (NMU2 N306Q; Log [CPN 267] M -13): 0
- enhanced potency compared to the WT receptor (NMU2 N306Q; TRUPATH): about 8 fold
- EC50 ratio EC50(mutant)/EC50(WT) (NMU2): 1
- CPN 267–induced G protein activation of NMU2 (NMU2; Log [CPN 267] M -5): -0.03587 and 0.007188 and -0.01399 and -0.02335
- CPN 267–induced G protein activation of NMU2 (NMU2; Log [CPN 267] M -6): -0.02292 and -0.01831 and -0.0188 and -0.02168 and -0.03547 and -0.01761 and -0.003911 and -0.0252 and -0.02032
- CPN 267–induced G protein activation of NMU2 (NMU2; Log [CPN 267] M -7): -0.006001 and -0.01343 and -0.0256 and -0.004694 and 0.01387 and -0.02539 and 0.01253 and -0.01403 and -0.001793
- CPN 267–induced G protein activation of NMU2 (NMU2; Log [CPN 267] M -8): 0.003495 and -0.002501 and 0.007246 and 0.0002105 and -0.01007 and 0.01037 and -0.008456 and 0.001798
- CPN 267–induced G protein activation of NMU2 (NMU2; Log [CPN 267] M -9): -0.002278 and 0.02355 and -0.003166 and -0.00428 and 0.01286 and -0.01712 and 0.00907 and -0.02718 and 0.02569
- CPN 267–induced G protein activation of NMU2 (NMU2; Log [CPN 267] M -10): 0.01327 and -0.00722 and 0.003132 and -0.01489 and -0.004805 and 0.01086 and 0.01655 and -0.01176
- CPN 267–induced G protein activation of NMU2 (NMU2; Log [CPN 267] M -11): 0.01288 and -0.01868 and -0.005647 and 0.02201 and -0.02258 and -0.03283 and 0 (3×)
- CPN 267–induced G protein activation of NMU2 (NMU2; Log [CPN 267] M -12): 0.001564 and -0.001695 and 0.03559 and -0.01351 and 0.02492 and 0
- CPN 267 dose-response point on NMU2 (TRUPATH, raw signal) (NMU2; Log [CPN 267] M -13): 0
- CPN 267–induced G protein activation of NMU2 (NMU2; Log [CPN 267] M -13): 0
- selectivity over NMU2 (NMU1; NMU1 over NMU2): 1000 fold
- EC50 (NMU1; agonistic activity for NMU1): 0.25 nM
- EC50 ratio EC50(mutant)/EC50(WT) (NMU2 H43E; H43E): 2
- increase of Emax (NMU2 H43E): twofold
- increase of Emax (NMU2 H43E; listed as CPN267): 2 fold
- CPN 267 dose-response point on NMU2 (TRUPATH, raw signal) (NMU2 H43E; H43E, Log [CPN 267] M -4): -0.04819
- CPN 267–induced G protein activation of NMU2 (NMU2 H43E; H43E, Log [CPN 267] M -4): -0.04819
- CPN 267–induced G protein activation of NMU2 (NMU2 H43E; H43E, Log [CPN 267] M -5): -0.05461 and -0.04902
- CPN 267–induced G protein activation of NMU2 (NMU2 H43E; H43E, Log [CPN 267] M -6): -0.04442 and -0.04638 and -0.03015
- CPN 267–induced G protein activation of NMU2 (NMU2 H43E; H43E, Log [CPN 267] M -7): -0.01102 and -0.01529 and -0.01284
- CPN 267–induced G protein activation of NMU2 (NMU2 H43E; H43E, Log [CPN 267] M -8): 0.004556 and -0.024 and -0.02479
- CPN 267–induced G protein activation of NMU2 (NMU2 H43E; H43E, Log [CPN 267] M -9): 0.01023 and -0.003075 and 0.003569
- CPN 267–induced G protein activation of NMU2 (NMU2 H43E; H43E, Log [CPN 267] M -10): 0.0005609 and -0.01099 and -0.03027
- CPN 267–induced G protein activation of NMU2 (NMU2 H43E; H43E, Log [CPN 267] M -11): 0.0192 and 0.004402 and 0
- CPN 267–induced G protein activation of NMU2 (NMU2 H43E; H43E, Log [CPN 267] M -12): 0.009217 and 0
- CPN 267 dose-response point on NMU2 (TRUPATH, raw signal) (NMU2 H43E; H43E, Log [CPN 267] M -13): 0
- CPN 267–induced G protein activation of NMU2 (NMU2 H43E; H43E, Log [CPN 267] M -13): 0
